Test system: hepatocytes
Assay: Seq-Well scRNA-Seq of hepatocytes after APAP overdose (signature scores, DEG vs untreated)
Type: in vivo, mouse
[1] = hepatocyte cluster A96 (APAP, 96 h) vs all other clusters
[2] = hepatocytes, cluster A24 (APAP) vs other treatment clusters
[3] = hepatocytes, cluster A48 (APAP) vs other treatment clusters

CC(=O)Nc1ccc(O)cc1 [APAP, acetaminophen]
avg_logFC Fmo1 [1]: 0.2535 | avg_logFC Gclm [1]: 0.269 | avg_logFC Hamp2 [1]: 0.2597 | avg_logFC Hsd17b7 [1]: 0.3023 | avg_logFC Lcat [1]: 0.2519 | avg_logFC Mocs2 [1]: 0.2666 | avg_logFC Mtdh [1]: 0.2838 | avg_logFC Ndufa3 [1]: 0.2765 | avg_logFC Ndufb2 [1]: 0.3005 | avg_logFC Nfe2l2 [1]: 0.2513 | avg_logFC Oat [1]: 0.3213 | avg_logFC Pabpc1 [1]: 0.2527 | avg_logFC Pdk1 [1]: 0.2558 | avg_logFC Prkd3 [1]: 0.2593 | avg_logFC Ptp4a2 [1]: 0.2634 | avg_logFC Rgn [1]: 0.291 | avg_logFC Sdhc [1]: 0.2722 | avg_logFC Sdhd [1]: 0.261 | avg_logFC Slc4a4 [1]: 0.2916 | avg_logFC Slc25a10 [1]: 0.2605 | avg_logFC Tgoln1 [1]: 0.2968 | avg_logFC Tmed5 [1]: 0.2563 | avg_logFC Tmem106b [1]: 0.2604 | avg_logFC Tob1 [1]: 0.301 | avg_logFC Tsc22d3 [1]: 0.3181 | avg_logFC Usmg5 [1]: 0.2565 | avg_logFC Zfp91 [1]: 0.3255 | AA474408 avg_logFC [2]: 0.4148 | Abca1 avg_logFC [2]: 0.3831 | Acox1 avg_logFC [2]: 0.2743 | Acsl4 avg_logFC [2]: 0.299 | Adh4 avg_logFC [2]: 0.392 | Ak3 avg_logFC [2]: 0.2504 | Aox3 avg_logFC [2]: 0.3489 | Arcn1 avg_logFC [2]: 0.3044 | Atp8b1 avg_logFC [2]: 0.361 | Atp11c avg_logFC [2]: 0.2568 | Atxn1 avg_logFC [2]: 0.325 | Calm1 avg_logFC [2]: 0.3702 | Calu avg_logFC [2]: 0.3005 | Canx avg_logFC [2]: 0.2771 | Cltc avg_logFC [2]: 0.3397 | Cmah avg_logFC [2]: 0.4243 | Copa avg_logFC [2]: 0.3334 | Cps1 avg_logFC [2]: 0.2775 | Ctnnb1 avg_logFC [2]: 0.329 | Cyb5r3 avg_logFC [2]: 0.3097 | Ddost avg_logFC [2]: 0.2909 | Dhcr24 avg_logFC [2]: 0.2824 | Dnajb11 avg_logFC [2]: 0.3288 | Dnajc12 avg_logFC [2]: 0.324 | Echdc1 avg_logFC [2]: 0.2818 | Edem1 avg_logFC [2]: 0.2675 | Efna1 avg_logFC [2]: 0.3161 | Eif4g1 avg_logFC [2]: 0.2763 | Eif4g2 avg_logFC [2]: 0.3515 | Eprs avg_logFC [2]: 0.2513 | Etnk1 avg_logFC [2]: 0.3194 | Fam120a avg_logFC [2]: 0.2583 | Fasn avg_logFC [2]: 0.2699 | Fndc3b avg_logFC [2]: 0.3202 | Fos avg_logFC [2]: 0.3632 | Gjb2 avg_logFC [2]: 0.2998 | Gm5424 avg_logFC [2]: 0.262 | Gm24245 avg_logFC [2]: 0.414 | Grlf1 avg_logFC [2]: 0.2556 | Hnf4a avg_logFC [2]: 0.2549 | Hs3st3b1 avg_logFC [2]: 0.3219 | Hsd3b5 avg_logFC [2]: 0.3009 | Hspa13 avg_logFC [2]: 0.342 | Ibtk avg_logFC [2]: 0.2959 | Il6st avg_logFC [2]: 0.3011 | Il13ra1 avg_logFC [2]: 0.2889 | Insig1 avg_logFC [2]: 0.4125 | Kmo avg_logFC [2]: 0.2687 | Lasp1 avg_logFC [2]: 0.2608 | Lgr4 avg_logFC [2]: 0.2572 | Lpgat1 avg_logFC [2]: 0.2525 | Lrg1 avg_logFC [2]: 0.3096 | Lrp1 avg_logFC [2]: 0.4837 | Lrrc59 avg_logFC [2]: 0.2688 | Met avg_logFC [2]: 0.2512 | Mlec avg_logFC [2]: 0.3405 | Mtss1 avg_logFC [2]: 0.2522 | Mtus1 avg_logFC [2]: 0.3125 | Mug2 avg_logFC [2]: 0.3166 | Nab1 avg_logFC [2]: 0.2601 | Nars avg_logFC [2]: 0.3127 | Nedd4 avg_logFC [2]: 0.3305 | Nr1d2 avg_logFC [2]: 0.3855 | Nr5a2 avg_logFC [2]: 0.2599 | Nrp1 avg_logFC [2]: 0.33 | Ostc avg_logFC [2]: 0.3082 | Prg4 avg_logFC [2]: 0.4007 | Prkd3 avg_logFC [2]: 0.3041 | Proz avg_logFC [2]: 0.28 | Pten avg_logFC [2]: 0.2663 | Ptprf avg_logFC [2]: 0.2888 | Qsox1 avg_logFC [2]: 0.2817 | Rab1 avg_logFC [2]: 0.3145 | Rpn1 avg_logFC [2]: 0.3991 | Rrbp1 avg_logFC [2]: 0.2968 | Sdf2l1 avg_logFC [2]: 0.3078 | Sec31a avg_logFC [2]: 0.2596 | Sec61b avg_logFC [2]: 0.3008 | Sel1l avg_logFC [2]: 0.2833 | Sh3bgrl avg_logFC [2]: 0.2668 | Slc3a1 avg_logFC [2]: 0.3074 | Slc38a10 avg_logFC [2]: 0.2557 | Spcs3 avg_logFC [2]: 0.3907 | Srebf1 avg_logFC [2]: 0.3149 | Srp72 avg_logFC [2]: 0.28 | Srpr avg_logFC [2]: 0.2914 | Ssr1 avg_logFC [2]: 0.3129 | Stard4 avg_logFC [2]: 0.2922 | Stt3b avg_logFC [2]: 0.2648 | Tmed7 avg_logFC [2]: 0.3715 | Tmem30a avg_logFC [2]: 0.3056 | Trip12 avg_logFC [2]: 0.2832 | Txndc5 avg_logFC [2]: 0.2758 | Uggt1 avg_logFC [2]: 0.2805 | Uso1 avg_logFC [2]: 0.3202 | Usp4 avg_logFC [2]: 0.2959 | Usp9x avg_logFC [2]: 0.3387 | Zbtb20 avg_logFC [2]: 0.3135 | Abcb4 avg_logFC [3]: 0.4425 | Abcd2 avg_logFC [3]: 0.2813 | Abhd14b avg_logFC [3]: 0.4059 | Acad11 avg_logFC [3]: 0.3851 | Agt avg_logFC [3]: 0.5795 | Ahcy avg_logFC [3]: 0.34 | Ahsg avg_logFC [3]: 0.3592 | Aldh9a1 avg_logFC [3]: 0.3826 | Aldob avg_logFC [3]: 0.4375 | Ambp avg_logFC [3]: 0.286 | Amy1 avg_logFC [3]: 0.4216 | Angptl3 avg_logFC [3]: 0.6111 | Apoa5 avg_logFC [3]: 0.4483 | Apoc2 avg_logFC [3]: 0.8639 | Apoc3 avg_logFC [3]: 0.407 | Apoe avg_logFC [3]: 0.5049 | Apoh avg_logFC [3]: 0.4628 | Atp5b avg_logFC [3]: 0.3281 | Atp5h avg_logFC [3]: 0.5978 | Bfar avg_logFC [3]: 0.308 | Bnip3 avg_logFC [3]: 0.462 | Cdo1 avg_logFC [3]: 0.3971 | Cebpb avg_logFC [3]: 0.3684 | Ces1b avg_logFC [3]: 0.483 | Ces1c avg_logFC [3]: 0.5488 | Chchd10 avg_logFC [3]: 0.7517 | Cox5a avg_logFC [3]: 0.4197 | Cox8a avg_logFC [3]: 0.552 | Cp avg_logFC [3]: 0.4274 | Cyp4a10 avg_logFC [3]: 0.9326 | Cyp4a14 avg_logFC [3]: 1.281 | Dbp avg_logFC [3]: 0.2896 | Ddb1 avg_logFC [3]: 0.3544 | Decr1 avg_logFC [3]: 0.5669 | Decr2 avg_logFC [3]: 0.4129 | Ech1 avg_logFC [3]: 0.418 | Echs1 avg_logFC [3]: 0.4649 | Ephx2 avg_logFC [3]: 0.3869 | F2 avg_logFC [3]: 0.3952 | F10 avg_logFC [3]: 0.3927 | F12 avg_logFC [3]: 0.388 | Fah avg_logFC [3]: 0.3913 | Fcgrt avg_logFC [3]: 0.4084 | Fkbp5 avg_logFC [3]: 0.2572 | Fth1 avg_logFC [3]: 0.375 | Gabarap avg_logFC [3]: 0.4014 | Gc avg_logFC [3]: 0.2979 | Gltscr2 avg_logFC [3]: 0.3432 | Gm6484 avg_logFC [3]: 0.4108 | Gm23935 avg_logFC [3]: 0.4738 | Grn avg_logFC [3]: 0.431 | Gstt3 avg_logFC [3]: 0.3384 | Gys2 avg_logFC [3]: 0.4231 | Hdac11 avg_logFC [3]: 0.3557 | Herpud1 avg_logFC [3]: 0.6044 | Hmgcl avg_logFC [3]: 0.5501 | Hmgcs2 avg_logFC [3]: 0.7687 | Hpx avg_logFC [3]: 0.3851 | Hrg avg_logFC [3]: 0.5316 | Hsd17b13 avg_logFC [3]: 0.6221 | Hspa8 avg_logFC [3]: 0.4107 | Khk avg_logFC [3]: 0.5202 | Lcat avg_logFC [3]: 0.5054 | Lims2 avg_logFC [3]: 0.3761 | Lpin1 avg_logFC [3]: 0.515 | Mat1a avg_logFC [3]: 0.7753 | Mfsd2a avg_logFC [3]: 0.6614 | Mlycd avg_logFC [3]: 0.4378 | Ndrg2 avg_logFC [3]: 0.3482 | Nr1i3 avg_logFC [3]: 0.4759 | Oaf avg_logFC [3]: 0.5021 | P4hb avg_logFC [3]: 0.2981 | Pabpc1 avg_logFC [3]: 0.4782 | Plin5 avg_logFC [3]: 0.3985 | Pnpla2 avg_logFC [3]: 0.3465 | Prodh2 avg_logFC [3]: 0.5055 | Rbp4 avg_logFC [3]: 0.3942

Reference: patent publication US20230053540A1, “TREATMENT OF LIVER INJURY” (Massachusetts Institute of Technology, priority 2019, published 2023)
